Experimental data published in article PMC6838683, “Discovery of Human Signaling Systems: Pairing Peptides to G Protein-Coupled Receptors” (Cell, 2019).
Read-outs that look alike come from different tables or passages of the source. Residues, ends and D or L forms follow the SMILES beside them.

How the values were obtained:
Type in all cases: cell-based
BB3 [1] = molecular target: T1, BB3 (Homo sapiens, UniProt P32247); test: IP1 accumulation (Gq/11), HTRF; details: mean, SEM and n (2-4)
T1 construct: hIL-2Ra signal peptide (N); expressed in transfected cells
T1 sequence (P32247 2-399 limits assumed): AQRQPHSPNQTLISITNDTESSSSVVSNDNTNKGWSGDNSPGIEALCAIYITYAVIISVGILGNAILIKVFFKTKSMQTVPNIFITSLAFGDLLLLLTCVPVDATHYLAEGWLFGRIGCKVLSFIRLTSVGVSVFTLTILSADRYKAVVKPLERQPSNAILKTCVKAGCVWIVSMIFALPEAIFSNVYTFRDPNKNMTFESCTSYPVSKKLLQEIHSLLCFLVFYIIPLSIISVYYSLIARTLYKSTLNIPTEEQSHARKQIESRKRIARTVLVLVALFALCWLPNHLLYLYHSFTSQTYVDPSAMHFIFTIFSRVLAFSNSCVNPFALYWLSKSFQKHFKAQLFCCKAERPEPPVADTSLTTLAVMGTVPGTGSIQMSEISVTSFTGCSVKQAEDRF

BB3 [2] = molecular target: T1, BB3; test: Real-time receptor internalization (TR-FRET), concentration-response
BB3 [3] = molecular target: T1, BB3; test: Dynamic mass redistribution (DMR), concentration-response; details: mean, SEM and n (3)
GPR55 = GPR55 (Homo sapiens, UniProt Q9Y2T6); test: Real-time receptor internalization (TR-FRET), concentration-response; parameters: hIL-2Ra signal peptide (N); expressed in transfected cells
Procedure: 48 hr prior to parallel assaying, SNAP-tagged oGPCR cells were plated (10,000 cells/well) in fibronectin-coated 384-well Epic biosensor microplates (Corning) and poly-D-lysine coated white 384-well plates (for internalization assays). SNAP- GLP-1 receptor was plated alongside orphan receptor cells as an internal assay control for internalization assays. Receptor-expression was induced with 0.1 μg/ml doxycycline.
A TR-FRET real-time internalization assay was used to examine peptide-dependent changes in orphan receptor localization as described previously ([Foster and Bräuner-Osborne, 2018]). Surface-expressed SNAP-tagged receptors were labeled with a cell-impermeable luminescent terbium cryptate (100 nM SNAP Lumi4-Tb; Cisbio, France) for 1 hr at 37°C. Cells were washed to remove excess terbium and incubated with fluorescein-O-acetic acid (100 μM; Sigma Aldrich) for 5 min at 37°C. Peptides were added as for DMR assays, and internalization responses were recorded for 60 min at 37°C using an EnVision 2104 Multimode plate reader (PerkinElmer). 100 nM GLP-1 was used as a positive control for SNAP-GLP1R internalization. Real-time internalization responses were calculated based on TR-FRET (excitation 340 nm; emission 520 nm and 615 nm), and were expressed as the ratio between donor (terbium) and acceptor (fluorescein) emission. For peptide screening analysis (both DMR and internalization assays), we calculated the area under the curve from the real-time traces. […] Validation experiments for receptor internalization were performed as above. Internalization data was processed in MS-Excel and area under the curve was used to generate concentration-response curves using GraphPad Prism 7.0. Data represent mean ± standard error of the mean (SEM) from at least 3 biologically independent experiments.

[4] = IP1 accumulation assays pEC50, receptor BB3
[5] = receptor BB3, mean, SEM and n (3), read-out: Internalization assays pEC50 (converted)
[6] = receptor BB3, read-out: IP1 accumulation assays pEC50 (converted)
[7] = receptor BB3, read-out: DMR assays pEC50 (converted)
[8] = receptor GPR55, mean, SEM and n (3-4), read-out: Internalization assays pEC50 (converted)

Sequence of GPR55 (Q9Y2T6 2-319 limits assumed): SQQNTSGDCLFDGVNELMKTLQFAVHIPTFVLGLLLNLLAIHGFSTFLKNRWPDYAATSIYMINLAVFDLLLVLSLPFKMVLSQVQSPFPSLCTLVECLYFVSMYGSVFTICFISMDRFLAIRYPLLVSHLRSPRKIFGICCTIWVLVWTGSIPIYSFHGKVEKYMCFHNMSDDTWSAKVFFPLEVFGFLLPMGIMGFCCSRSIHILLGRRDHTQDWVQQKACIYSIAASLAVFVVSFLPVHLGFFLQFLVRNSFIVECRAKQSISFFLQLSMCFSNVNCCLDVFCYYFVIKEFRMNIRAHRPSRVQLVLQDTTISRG

## CSCC[C@H](NC(=O)[C@H](Cc1ccccc1)NC(=O)[C@H](Cc1cnc[nH]1)NC(=O)CNC(=O)[C@@H](NC(=O)[C@H](C)NC(=O)[C@H](Cc1c[nH]c2ccccc12)NC(=O)[C@H](CC(C)C)NC(=O)[C@H](CC(N)=O)NC(=O)CN)[C@@H](C)O)C(N)=O [59 resynthesized]
BB3 [1]; [4]
  EC50: 525 nM
BB3 [2]; [5]
  EC50: 1550 nM
BB3 [3]; DMR assays pEC50, receptor BB3
  EC50: 27.5 nM

## CC[C@H](C)[C@H](NC(=O)[C@H](CCCCN)NC(=O)[C@H](CO)NC(=O)[C@H](C)NC(=O)[C@H](CCCNC(=N)N)NC(=O)[C@H](CO)NC(=O)[C@H](CCCNC(=N)N)NC(=O)[C@@H]1CCCN1C(=O)[C@H](CCC(=O)O)NC(=O)[C@@H]1CCCN1C(=O)[C@H](CC(C)C)NC(=O)[C@H](CC(=O)O)NC(=O)[C@H](Cc1c[nH]c2ccccc12)NC(=O)[C@H](CO)NC(=O)[C@H](CC(C)C)NC(=O)[C@@H]1CCCN1C(=O)[C@H](C)N)C(=O)N[C@@H](CCCNC(=N)N)C(=O)N[C@H](C(=O)N[C@@H](Cc1c[nH]cn1)C(=O)N[C@@H](CO)C(=O)N[C@@H](CCCNC(=N)N)C(=O)NCC(=O)N[C@@H](CC(N)=O)C(=O)N[C@@H](CC(C)C)C(=O)N[C@@H](Cc1c[nH]c2ccccc12)C(=O)N[C@@H](C)C(=O)N[C@H](C(=O)NCC(=O)N[C@@H](Cc1c[nH]cn1)C(=O)N[C@@H](Cc1ccccc1)C(=O)N[C@@H](CCSC)C(N)=O)[C@@H](C)O)C(C)C [59.1 (Phoenix)] (H-APLSWDLPEPRSRASKIRVHSRGNLWATGHFM-NH2)
BB3 [1]; [6]
  EC50: 224 nM
BB3 [2]; [5]
  EC50: 646 nM
BB3 [3]; [7]
  EC50: 49 nM

## CSCC[C@H](NC(=O)[C@H](Cc1ccccc1)NC(=O)CNC(=O)CNC(=O)[C@@H](N)Cc1ccc(O)cc1)C(=O)O [158.1 (Phoenix)]
BB3 [1]; [4]
  EC50: 12.6 nM
BB3 [3]; DMR assays pEC50, receptor BB3
  EC50: 64.6 nM

## CC(C)C[C@H](NC(=O)[C@H](CCCCN)NC(=O)[C@H](CCC(N)=O)NC(=O)[C@@H](NC(=O)[C@H](CCCCN)NC(=O)[C@H](CO)NC(=O)[C@H](Cc1ccc(O)cc1)NC(=O)[C@H](Cc1c[nH]cn1)NC(=O)[C@H](Cc1ccccc1)NC(=O)[C@H](CC(C)C)NC(=O)[C@@H](N)Cc1ccccc1)[C@@H](C)O)C(=O)NCC(=O)N[C@@H](CCCCN)C(=O)N[C@@H](CO)C(=O)N[C@@H](CC(N)=O)C(=O)N[C@H](C(=O)N[C@H](C(=O)N[C@@H](CO)C(=O)N[C@@H](CO)C(=O)N[C@H](C(=O)N[C@H](C(=O)N[C@@H](Cc1c[nH]cn1)C(=O)N1CCC[C@H]1C(=O)N[C@@H](CC(C)C)C(=O)N[C@@H](CC(C)C)C(=O)N[C@@H](CCC(N)=O)C(=O)N[C@@H](CC(C)C)C(=O)N[C@H](C(=O)N1CCC[C@H]1C(=O)N[C@@H](Cc1c[nH]cn1)C(=O)N[C@@H](CC(C)C)C(=O)N[C@@H](Cc1c[nH]cn1)C(=O)N[C@@H](CCC(=O)O)C(=O)O)C(C)C)C(C)C)C(C)C)C(C)C)C(C)C [Peptide 67.1] (H-FLFHYSKTQKLGKSNVVSSVVHPLLQLVPHLHE-OH)
BB3 [1]; [6]
  EC50: 4270 nM
BB3 [3]; [7]
  EC50: 32400 nM

## CSCC[C@H](NC(=O)[C@H](CCCNC(=N)N)NC(=O)[C@H](CCCNC(=N)N)NC(=O)[C@H](CCC(=O)O)NC(=O)[C@H](Cc1c[nH]cn1)NC(=O)[C@H](CC(C)C)NC(=O)[C@H](Cc1c[nH]cn1)NC(=O)[C@@H]1CCCN1C(=O)[C@@H](NC(=O)[C@H](CC(C)C)NC(=O)[C@H](CCC(N)=O)NC(=O)[C@H](CC(C)C)NC(=O)[C@H](CC(C)C)NC(=O)[C@@H]1CCCN1C(=O)[C@H](Cc1c[nH]cn1)NC(=O)[C@@H](NC(=O)[C@@H](NC(=O)[C@H](CO)NC(=O)[C@H](CO)NC(=O)[C@@H](NC(=O)[C@@H](NC(=O)[C@H](CC(N)=O)NC(=O)[C@H](CO)NC(=O)[C@H](CCCCN)NC(=O)CNC(=O)[C@H](CC(C)C)NC(=O)[C@H](CCCCN)NC(=O)[C@H](CCC(N)=O)NC(=O)[C@@H](NC(=O)[C@H](CCCCN)NC(=O)[C@H](CO)NC(=O)[C@H](Cc1ccc(O)cc1)NC(=O)[C@H](Cc1c[nH]cn1)NC(=O)[C@H](Cc1ccccc1)NC(=O)[C@H](CC(C)C)NC(=O)[C@@H](N)Cc1ccccc1)[C@@H](C)O)C(C)C)C(C)C)C(C)C)C(C)C)C(C)C)C(=O)O [Peptide 67.2] (H-FLFHYSKTQKLGKSNVVSSVVHPLLQLVPHLHERRM-OH)
BB3 [1]; [6]
  EC50: 1170 nM
BB3 [3]; [7]
  EC50: 38000 nM

## CC(C)C[C@H](NC(=O)[C@H](CCCCN)NC(=O)[C@H](CCC(N)=O)NC(=O)[C@@H](NC(=O)[C@H](CCCCN)NC(=O)[C@H](CO)NC(=O)[C@H](Cc1ccc(O)cc1)NC(=O)[C@H](Cc1c[nH]cn1)NC(=O)[C@H](Cc1ccccc1)NC(=O)[C@H](CC(C)C)NC(=O)[C@@H](N)Cc1ccccc1)[C@@H](C)O)C(N)=O [Peptide 67] (H-FLFHYSKTQKL-NH2; N-terminus assumed)
BB3 [2]; SNAP-tagged BB3 in Flp-In T-REx 293 cells, TR-FRET 60 min, 37°C, AUC, mean ± SEM of 3-4 independent experiments in triplicate, read-out: pEC50, internalization, BB3 (converted)
  EC50: > 10000 nM

## CC[C@H](C)[C@H](NC(=O)[C@H](CC(=O)O)NC(=O)[C@@H](NC(=O)[C@H](Cc1ccc(O)cc1)NC(=O)[C@@H](NC(=O)CNC(=O)[C@H](CC(N)=O)NC(=O)[C@@H](NC(=O)[C@H](CC(C)C)NC(=O)[C@H](Cc1ccc(O)cc1)NC(=O)[C@H](CC(=O)O)NC(=O)[C@H](CC(C)C)NC(=O)[C@H](CCCNC(=N)N)NC(=O)[C@H](CO)NC(=O)[C@H](Cc1ccc(O)cc1)NC(=O)[C@H](CCCNC(=N)N)NC(=O)[C@@H](N)CCCCN)[C@@H](C)CC)[C@@H](C)CC)C(C)C)C(=O)O [Peptide 114] (H-KRYSRLDYLINGIYVDI-OH; N-terminus assumed)
GPR55; read-out: pEC50, internalization, GPR55 (converted)
  EC50: > 10000 nM

## CSCC[C@H](NC(=O)[C@H](Cc1ccccc1)NC(=O)CNC(=O)CNC(=O)[C@@H](N)Cc1ccc(O)cc1)C(=O)N[C@@H](CCCNC(=N)N)C(=O)N[C@@H](CCCNC(=N)N)C(=O)N[C@H](C(N)=O)C(C)C [Peptide 158.3]
BB3 [1]; [4]
  EC50: 89.1 nM
BB3 [3]; DMR assays pEC50, receptor BB3
  EC50: 15500 nM

## CSCC[C@H](NC(=O)[C@H](Cc1ccccc1)NC(=O)CNC(=O)CNC(=O)[C@@H](N)Cc1ccc(O)cc1)C(=O)N[C@@H](CCCNC(=N)N)C(=O)N[C@@H](CCCNC(=N)N)C(=O)N[C@H](C(=O)NCC(=O)N[C@@H](CCCNC(=N)N)C(=O)N1CCC[C@H]1C(=O)N[C@@H](CCC(=O)O)C(=O)N[C@@H](Cc1c[nH]c2ccccc12)C(=O)N[C@@H](Cc1c[nH]c2ccccc12)C(=O)N[C@@H](CCSC)C(=O)N[C@@H](CC(=O)O)C(=O)N[C@@H](Cc1ccc(O)cc1)C(=O)N[C@@H](CCC(N)=O)C(=O)O)C(C)C [Peptide 158.5] (H-YGGFMRRVGRPEWWMDYQ-OH)
BB3 [1]; [4]
  EC50: 100 nM
BB3 [3]; DMR assays pEC50, receptor BB3
  EC50: 69200 nM

## CC(C)C[C@H](NC(=O)[C@@H](NC(=O)[C@H](C)NC(=O)[C@H](C)NC(=O)[C@H](CC(C)C)NC(=O)[C@@H](N)Cc1ccc(O)cc1)C(C)C)C(N)=O [Peptide 168.2] (H-YLAAVL-NH2)
GPR55; [8]
  EC50: 20400 nM

## CSCC[C@H](NC(=O)[C@@H](N)CCC(N)=O)C(=O)N[C@@H](C)C(=O)N[C@H](C(=O)N[C@@H](CCCCN)C(=O)N[C@@H](CCCCN)C(=O)N[C@@H](Cc1ccc(O)cc1)C(=O)N[C@@H](CC(C)C)C(=O)N[C@@H](C)C(=O)N[C@@H](C)C(=O)N[C@H](C(=O)N[C@@H](CC(C)C)C(N)=O)C(C)C)C(C)C [Peptide 168.3]
GPR55; [8]
  EC50: 0.219 nM

## CC[C@H](C)[C@H](NC(=O)CNC(=O)[C@H](CC(=O)O)NC(=O)[C@H](CO)NC(=O)[C@@H](N)Cc1c[nH]cn1)C(=O)N[C@@H](Cc1ccccc1)C(=O)N[C@H](C(=O)N[C@@H](CC(=O)O)C(=O)N[C@@H](CO)C(=O)N[C@@H](Cc1ccc(O)cc1)C(=O)N[C@@H](CO)C(=O)N[C@@H](CCCNC(=N)N)C(=O)N[C@@H](Cc1ccc(O)cc1)C(=O)O)[C@@H](C)O [Peptide 168.4] (H-HSDGIFTDSYSRY-OH)
GPR55; [8]
  EC50: 316 nM

## YGGFMRRVGRPEWWMDYQKRYGGFL [158 original]
BB3 [1]; receptor BB3
  IP1 accumulation assays Emax: 164.0 nM
BB3 [2]; receptor BB3, mean, SEM and n (3)
  Internalization assays Emax (AUC): 16.0
